Measurements as given in US20220249479A1, “MODIFIED RELEASE FORMULATION OF A PYRIMIDINYLAMINO-PYRAZOLE COMPOUND, AND METHODS OF TREATMENT” (DENALI THERAPEUTICS INC., priority 2019, published 2022).

Assay: Multiple-dose PK of API-in-capsule formulation BID for 10 days in healthy human subjects
Assay type: in vivo
Experimental: The mean CSF to unbound plasma ratio was about 1.0. Data shown is from 25, 80, and100 mg BID multiple dose cohorts.
Formula I compound was administered to healthy young human subjects as an API-in- capsule formulation at doses of 25 mg, 40 mg, 80 mg and 100 mg BID, and to healthy elder subjects at 80 mg BID. Formula I compound concentrations were determined on Day 1 and 10 and at trough on selected day during the 10 days of administration. […] The terminal half-life, and plasma concentrations and pS935 inhibition at trough (minima) are consistent with twice-daily administration as an efficacious regimen.
[…] variability in the ratio was seen because of the parallel (non-crossover) nature of the study design. […] Physiologically-based PK modelling, was used to predict the Cmax/Cmin ratio for MUPS formulations contain various amounts of KOLLICOAT® polymer.

## CNc1nc(Nc2cn(C(C)(C)C#N)nc2C)ncc1C(F)(F)F [Formula I compound, 2-methyl-2-(3-methyl-4-(4-(methylamino)-5-(trifluoromethyl)pyrimidin-2-ylamino)-1H-pyrazol-1-yl)propanenitrile]
25 to 100 mg BID dose range
  plasma Cmax and AUC versus dose: dose-proportional
human, CSF / unbound plasma, oral, healthy young and healthy elderly, Day 10, 25, 80 and 100 mg BID immediate release capsule, read-out: mean CSF to unbound plasma ratio
  Kp at 10 day: ~1
human, plasma, oral, postdose Day 10, 25-100 mg BID, read-out: terminal half-life in plasma
  half-life: 840 to 1560 min
